Reference: the SangsterLogP compilation

Assay: method code SF-AS, from Smul'skii, S.; Bogatskii, A.; Andronati, S.; Vikhlyaev, Yu.; Zhilina, Z. (1977). Lipophilic nature of quinazolin-2-ones and 1,2-dihydro-3H-1,4-benzodiazepin-2-ones. Otdel. Khim. Nauk., 235(2)369-371.
Settings: pH 7.4
In the case of CCC1N=C(c2ccccc2)c2cc(Br)ccc2NC1=O (configuration not stated), the logD is reported as 3.79. CC1N=C(c2ccccc2)c2cc(Cl)ccc2N(C)C1=O (configuration not stated) gave a logD of 3.68. Work on O=c1nc(-c2ccccc2)c2cc(Cl)ccc2[nH]1 yielded a logD of 2.53. Work on CC1N=C(c2ccccc2)c2cc(Cl)ccc2NC1=O (configuration not stated) yielded a logD of 3.25. For CC(C)C1N=C(c2ccccc2)c2cc(Br)ccc2NC1=O (configuration not stated), the logD was 4.18. With CCCC1N=C(c2ccccc2)c2cc(Cl)ccc2NC1=O (configuration not stated) the logD was 4.14. With Cc1ccc2c(c1)=C(c1ccccc1)N(O)CC(=O)N=2 the logD was 1.13. Work on O=C1Nc2ccc(Br)cc2C(c2ccccc2Cl)=NC1O (configuration not stated) yielded a logD of 2.54. Compound O=c1nc(-c2ccccc2)c2cc(Br)ccc2[nH]1 has a logD of 2.71. O=C1CN(O)C(c2ccccc2)=c2cc(Br)ccc2=N1 showed a logD of 1.53. Work on Cc1ccc2[nH]c(=O)nc(-c3ccccc3)c2c1 yielded a logD of 2.32. O=C1CN=C(c2ccccc2)c2cc(Br)ccc2N1 gave a logD of 3.11. CC(=O)OC1N=C(c2ccccc2)c2cc(Br)ccc2NC1=O (configuration not stated) gave a logD of 2.76. CC(C)C1N=C(c2ccccc2)c2cc(Cl)ccc2NC1=O (configuration not stated) showed a logD of 4. With O=C1CN=C(c2ccccc2Cl)c2cc(Br)ccc2N1 the logD was 3.3. In the case of CC(=O)OC1N=C(c2ccccc2)c2cc(Cl)ccc2NC1=O (configuration not stated), the logD is reported as 2.6. For O=c1nc(-c2ccccc2)c2ccccc2[nH]1, the logD was 1.91.
